The record followed here is patent publication US10745346B2, “Agonists of protein tyrosine phosphatase SHP-1” (priority 2015, dated 2020).

In experiment [1] the target is Recombinant SHP-1 protein (Homo sapiens, UniProt P29350). Description: SHP-1 phosphatase activity assay (RediPlate 96 EnzChek Tyrosine Phosphatase Assay kit). In kind it is biochemical. The settings on record: SC derivatives at 1 μM for 2 hr; recombinant SHP-1 25 ng; control DMSO = 100; mean±SD (N=3). The essentials: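 Recombinant human SHP-1 (25 ng) was incubated for 2 h with compound at 1 μM, using a DMSO solvent control. Tyrosine phosphatase activity was then measured with the EnzChek kit by absorbance at 465 nm. Values are mean±SD, N=3.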
Sequence of Recombinant SHP-1 protein (P29350 whole entry): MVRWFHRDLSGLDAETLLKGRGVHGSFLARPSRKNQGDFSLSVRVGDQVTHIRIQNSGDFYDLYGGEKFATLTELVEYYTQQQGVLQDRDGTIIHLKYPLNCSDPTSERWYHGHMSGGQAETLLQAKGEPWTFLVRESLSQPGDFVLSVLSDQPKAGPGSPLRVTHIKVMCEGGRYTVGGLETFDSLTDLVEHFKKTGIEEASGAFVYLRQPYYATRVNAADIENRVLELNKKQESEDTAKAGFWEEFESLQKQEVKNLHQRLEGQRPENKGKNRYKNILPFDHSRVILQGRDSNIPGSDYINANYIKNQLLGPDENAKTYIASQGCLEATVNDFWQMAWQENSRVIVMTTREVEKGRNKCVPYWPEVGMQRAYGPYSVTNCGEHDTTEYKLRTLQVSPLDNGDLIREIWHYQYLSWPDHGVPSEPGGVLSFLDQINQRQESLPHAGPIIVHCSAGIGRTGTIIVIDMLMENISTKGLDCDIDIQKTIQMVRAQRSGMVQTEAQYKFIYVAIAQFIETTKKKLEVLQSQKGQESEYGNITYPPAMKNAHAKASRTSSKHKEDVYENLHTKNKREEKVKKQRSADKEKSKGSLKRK

Experiment [2] concerns PLC5 cells (a hepatocellular carcinoma cell line). Put plainly: Cytotoxicity, MTT cell viability assay. Type of experiment: cell-based. The settings on record: 72 h exposure. The method, then:
PLC5 cells (a hepatocellular carcinoma cell line) were seeded at 5×10^3 cells per well in 96-well plates. Then, cells were exposed to SC derivatives at the indicated doses for 72 h. After that, cells were incubated with MTT (1 mg/ml) (Sigma-Aldrich, St. Louis, Mo.) for 2 h at 37° C. Cell viability was then assessed by measuring the absorbance at 570 nm using a microplate reader.

Take `N#CCc1ccc(Oc2ccc(NC(=O)Nc3ccc(F)c(C(F)(F)F)c3)cc2)cc1` [compound 168, 1-(4-(4-(cyanomethyl)phenoxy)phenyl)-3-(4-fluoro-3-(trifluoromethyl)phenyl)urea]: in experiment [1], the “SHP-1 Activity (% of control)” value is recorded as 147.25 ± 78.63 % of control. Moreover, the IC50 in experiment [2] is 1070 nM.
On the same counts, the results for `N#CCc1ccc(NC(=O)Nc2ccc(Oc3ccc(CC#N)cc3)cc2)cc1` [compound 169, 1-(4-(4-(cyanomethyl)phenoxy)phenyl)-3-(4-(cyanomethyl)phenyl)urea] are 126.25 ± 1.46 % of control and more than 10000 nM.
For `C#Cc1cccc(NC(=O)Nc2ccc(Oc3ccc(CC#N)cc3)cc2)c1` [compound 170, 1-(4-(4-(cyanomethyl)phenoxy)phenyl)-3-(3-ethynylphenyl)urea], the “SHP-1 Activity (% of control)” value in experiment [1] is 101.42 ± 7.86 % of control. Moreover, the IC50 in experiment [2] is more than 10000 nM.
In the case of `N#CCc1ccc(Oc2ccc(NC(=O)Nc3ccc(Cl)c(C(F)(F)F)c3)cc2)cc1` [compound 171, 1-(4-chloro-3-(trifluoromethyl)phenyl)-3-(4-(4-(cyanomethyl)phenoxy)phenyl)urea], the “SHP-1 Activity (% of control)” value in experiment [1] was 116.66 ± 17.26 % of control. Moreover, in experiment [2], the 50% inhibitory concentration (IC50) came out at 880 nM.
On the same counts, the results for `N#CCc1ccc(Oc2ccc(NC(=O)Nc3cc(C(F)(F)F)cc(C(F)(F)F)c3)cc2)cc1` [compound 172, 1-(3,5-bis(trifluoromethyl)phenyl)-3-(4-(4-(cyanomethyl)phenoxy)phenyl) urea] are 215.34 ± 12.22 % of control and 410 nM.
On the same counts, the results for `N#CCc1ccc(Oc2ccc(NC(=O)Nc3cccc(C(F)(F)F)c3)cc2)cc1` [compound 173, 1-(4-(4-(cyanomethyl)phenoxy)phenyl)-3-(3-(trifluoromethyl)phenyl)urea] are 110.75 ± 1.18 % of control and more than 10000 nM.
On the same counts, the results for `Cc1cc(Oc2cc(NC(=O)Nc3cccc(C(F)(F)F)c3)ccc2Cl)ccc1C#N` [compound 174, 1-(4-chloro-3-(4-cyano-3-methylphenoxy)phenyl)-3-(3-(trifluoromethyl)phenyl)urea] are 203.95 ± 30.20 % of control and 1460 nM.
`Cc1cc(Oc2cc(NC(=O)Nc3ccc(Cl)c(C(F)(F)F)c3)ccc2Cl)ccc1C#N` [compound 175, 1-(4-chloro-3-(4-cyano-3-methylphenoxy)phenyl)-3-(4-chloro-3-(trifluoromethyl)phenyl)urea]: the “SHP-1 Activity (% of control)” value in experiment [1] is reported as 233.37 ± 36.5 % of control. Moreover, in experiment [2], the IC50 amounted to 1200 nM.
On the same counts, the results for `Cc1cc(Oc2cc(NC(=O)Nc3cc(C(F)(F)F)cc(C(F)(F)F)c3)ccc2Cl)ccc1C#N` [compound 176, 1-(3,5-bis(trifluoromethyl)phenyl)-3-(4-chloro-3-(4-cyano-3-methylphenoxy)phenyl)urea] are 112.57 ± 3.69 % of control and 650 nM.
On the same counts, the results for `Cc1cc(Oc2cc(NC(=O)Nc3ccc(F)c(C(F)(F)F)c3)ccc2Cl)ccc1C#N` [compound 177, 1-(4-chloro-3-(4-cyano-3-methylphenoxy)phenyl)-3-(4-fluoro-3-(trifluoromethyl)phenyl)urea] are 103.52 ± 1.13 % of control and more than 10000 nM.
`N#Cc1ccc(Oc2cc(NC(=O)Nc3cccc(C(F)(F)F)c3)ccc2Cl)cc1Cl` [compound 178, 1-(4-chloro-3-(3-chloro-4-cyanophenoxy)phenyl)-3-(3-(trifluoromethyl)phenyl)urea]: the “SHP-1 Activity (% of control)” value in experiment [1] is given as 106.69 ± 9.47 % of control. The compound also returned a concentration for half-maximal inhibition (IC50) in experiment [2] of 1490 nM.
On the same counts, the results for `N#Cc1ccc(Oc2cc(NC(=O)Nc3ccc(Cl)c(C(F)(F)F)c3)ccc2Cl)cc1Cl` [compound 179, 1-(4-chloro-3-(3-chloro-4-cyanophenoxy)phenyl)-3-(4-chloro-3-(trifluoromethyl)phenyl)urea] are 99.11 ± 7.09 % of control and 950 nM.

For orientation: IC50 means the concentration that inhibits the measured activity by half. A high value points to weaker potency in that assay.
